Experimental data published in PMC12455637, “Functionalizing Nisin with a Sugar Moiety Improves Its Solubility and Results in an Altered Antibacterial Spectrum and Mode of Action” (ACS Synthetic Biology, 2025).
Converted amounts (≈) assume the structure as drawn. Ends that are not written are not given here.

What was measured:
[1] = tested on: E. faecium; assay: Time-kill assay; format: cell-based, Enterococcus faecium
Protocol: The antimicrobial effectiveness of nisin, nisin(1–22), and nisin(M21V)–Gal was assessed using a method previously described by Guo et al. , In summary, an overnight culture of E. faecium was diluted 50 times in GM17 medium and cultured at 37 °C. The bacteria were grown until reaching an optical density at 600 nm (OD600) of 0.5, and then the cell concentration was adjusted to 5 × 10^5 colony-forming units per milliliter (CFU/mL). Following this, the bacteria were exposed to a 5-fold MIC of each peptide. An untreated cell suspension was used as a control. At specific time intervals, 50 μL samples were taken, and both undiluted and 10-fold serially diluted suspensions were plated on GM17 agar. The plates were then incubated overnight at 37 °C, and the resulting colonies were counted and expressed as CFU/mL. Each experiment was conducted in triplicate.

[2] = tested on: B. cereus; assay: Agar well diffusion assay; format: cell-based, Bacillus cereus; details: HPLC-purified peptides
Protocol: (§1) An overnight culture was added at a concentration of 0.1% (v/v) to molten GM17 agar (for E. faecium and E. faecalis) or LB agar (for S. aureus and B. cereus) at 45 °C, and then 30 mL of this mixture was poured onto a plate. After the agar solidified, wells of 8 mm were created by punching in the agar and filled with 30 μL of a 1 mg/mL lantibiotic solution. If needed, lantibiotics were activated by adding 3 μL of 1 mg/mL NisP directly to the well. The quantity of nisin was determined using HPLC as previously outlined. The agar plate was then incubated at 37 °C overnight, and the zones of inhibition were measured. The presented data results from three independent experiments. Zone diameters were measured in millimeters and recorded as the area of the zone (πr ^2) minus the area of the well (πr ^2) in millimeters.

[3] = tested on: S. aureus; assay: Agar well diffusion assay; format: cell-based, Staphylococcus aureus; details: HPLC-purified peptides
Protocol: as §1

[4] = tested on: E. faecium; assay: Potassium ion efflux assay (PBFI probe); format: cell-based, Enterococcus faecium; details: various peptide concentrations, up to 32 times MIC; 10 mM HEPES pH 7.2, 0.5% glucose, 10 μM PBFI
Protocol: To conduct the K^+ release assay, the K^+-specific fluorescent probe PBFI was utilized. E. faecium was cultured in GM17 medium until it reached an OD600 of 0.6, at which point the cells were harvested (5000g, 5 min) and washed twice with 10 mM HEPES (pH 7.2) containing 0.5% glucose. The cells were then suspended in the same buffer supplemented with 10 μM PBFI. Data analysis was carried out using a Varioskan LUX Multimode Microplate Reader (Thermo Fisher Scientific), with cell excitation at 346 nm and fluorescence emission measurement at 505 nm to establish a baseline signal before the introduction of varying concentrations of antibiotics. Nisin was utilized as the positive control in this study.

[5] = tested on: lipid II; assay: Spot-on-lawn assay of peptide-lipid II complex formation; format: cell-based, Enterococcus faecium; details: lipid II 300 μM, 2 μL spotted at edge of inhibition zone, E. faecium lawn, overnight 37 °C
Protocol: To assess the interaction between the peptide and lipid II, an overnight culture of E. faecium was added to 0.8% GM17 (w/v) at 45 °C with a final concentration of 0.1% (v/v), and the mixture was then poured into 10 mL plates. The binding of the peptide to lipid II was further examined by spotting purified lipid II (300 μM, 2 μL) at the periphery of the antibiotic inhibition zone. In brief, antimicrobials were applied to the agar plate. Once the antimicrobial solution drops had dried, lipid II was spotted at the edge of the inhibition zone. After the drops had dried, the plates were incubated overnight at 37 °C.

[6] = tested on: E. faecium; format: cell-based, Enterococcus faecium; details: agar well diffusion, 30 μL of 1 mg/mL
Protocol: 2 Production of single-Met containing nisin and nisin variants labeled with Met, Hpg or Hpg–Glc and their antibacterial activity against E. faecium strain. (a) Quantification of fully modified nisin variants labeled with Met or Hpg using HPLC as per Schmitt et al. (b) Evaluation of the antimicrobial efficacy of nisin and its variants against E. faecium through agar well diffusion assay. Each trial was repeated 3 times. The relative activity was determined by measuring inhibition zone diameters in millimeters, calculated as the area of the zone (πr ^2) minus the area of the well (πr ^2) in millimeters.
as §1

[7] = Solubility at neutral pH; format: physicochemical
Protocol: Highest solubility at pH 7 was obtained for nisin Z mutant M31K (7–8 mg/mL). The covalent modification of a therapeutic peptide or protein with sugar units is an established strategy to enhance drug solubility and bioavailability. The N-terminal segment of nisin contains a relatively high proportion of hydrophobic residues, while the C-terminal portion is more hydrophilic, featuring positively charged lysine and histidine side chains (Figure e). Attaching a hydrophilic sugar moiety to the C-terminal region of nisin therefore may not substantially alter its amphiphilic nature. To assess the solubility of nisin and its new variants at neutral pH, wild-type nisin or nisin(M21V)–Gal were added to a 50 mM PBS buffer solution (pH 7.2) at room temperature until precipitation occurred (Figure S7a). After equilibration, the concentration of dissolved nisin in the saturated solution was determined using high-performance liquid chromatography (HPLC).
Wild-type nisin (product code: 0305, Handary, Belgium) or nisin(M21V)–Gal was added to a 50 mM PBS buffer solution until precipitation occurred. Equilibrium was established by continuous shaking for 30 min, followed by centrifugation for 3 min at 15,000g. The concentration of the saturated nisin solution was determined using HPLC. […]

[8] = tested on: E. faecium cells; assay: Membrane potential, DiSC3(5) probe; format: cell-based, Enterococcus faecium; details: different concentrations, 2 μM DiSC3(5), monitored 25 min, three replicates
Protocol: To assess the membrane potential, the membrane potential-sensitive fluorescent dye DiSC3(5) was employed. E. faecium was grown to an OD600 of 0.8, then centrifuged at 5000g for 5 min and washed twice in 10 mM HEPES with 10 mM glucose (pH 7.2). The cell density was adjusted to an OD600 of 0.2 and loaded with 2 μM DiSC3(5) dye, followed by a 20 min incubation in darkness to stabilize the probe fluorescence. Subsequently, the cell suspension was transferred to a 96-well microplate and incubated for 5 min with 100 mM KCl. Antibiotics were then introduced at a varied concentration, and the fluorescence was monitored for 25 min. The excitation and emission wavelengths on the fluorescence spectrometer were set to 622 and 670 nm, respectively. Three replicates were conducted, and a representative example is presented.

[9] = tested on: Staphylococcus aureus LMG15975 (MRSA); format: cell-based; details: broth microdilution, inoculum ~5 × 10^5 CFU/mL, overnight 37 °C, HPLC-purified peptides
Protocol: (§2) The minimal inhibitory concentration (MIC) values were assessed through broth microdilution following standard guidelines. The inoculum was adjusted to around 5 × 10^5 CFU/mL. MIC was characterized as the lowest concentration of the antimicrobial substance at which no visible growth was observed following overnight incubation at 37 °C.

[10] = tested on: Enterococcus faecium LMG16003 (VRE); format: cell-based; details: broth microdilution, inoculum ~5 × 10^5 CFU/mL, overnight 37 °C, HPLC-purified peptides
Protocol: as §2

[11] = tested on: Enterococcus faecalis; assay: Agar well diffusion assay; format: cell-based; details: HPLC-purified peptides
Protocol: as §1

[12] = tested on: Staphylococcus epidermidis; details: ref citation number not printed (Twomey et al. by title); cited from earlier work
Source text: Recently, we introduced the Met analog Aha at position 17 and used click chemistry to ...

C=C(NC(=O)[C@@H](NC(=O)[C@H](Cc1c[nH]cn1)NC(=O)[C@@H](NC(=O)[C@H](CO)NC(=O)[C@@H]1CS[C@@H](C)[C@H]2NC(=O)[C@H](C)NC(=O)[C@H](NC(=O)[C@H](CCCCN)NC(=O)[C@@H](NC(=O)[C@H](CC(N)=O)NC(=O)[C@@H]3CS[C@@H](C)[C@@H](NC(=O)[C@H](CCCCN)NC(=O)[C@@H]4CS[C@@H](C)[C@@H](NC(=O)[C@@H]5CSC[C@@H](NC(=O)/C(=C/C)NC(=O)[C@@H](N)[C@@H](C)CC)C(=O)N[C@@H]([C@@H](C)CC)C(=O)NC(=C)C(=O)N[C@@H](CC(C)C)C(=O)N5)C(=O)N5CCC[C@H]5C(=O)NCC(=O)N4)C(=O)NCC(=O)N[C@@H](C)C(=O)N[C@@H](CC(C)C)C(=O)N[C@@H](CCc4cn(C[C@H]5OC(O)[C@H](O)[C@@H](O)[C@H]5O)nn4)C(=O)NCC(=O)N3)C(C)C)[C@H](C)SC[C@H](NC2=O)C(=O)N[C@@H](Cc2c[nH]cn2)C(=O)N1)[C@@H](C)CC)C(C)C)C(=O)N[C@@H](CCCCN)C(=O)O (some centres unmarked) [nisin(M21V)–Gal]
bacteriostatic or bactericidal nature ([1]; 5-fold MIC against E. faecium): bactericidal activity
reduction in bacterial population ([1]; 5-fold MIC, after 3 h of incubation, start 5 × 10^5 CFU/mL, triplicate): thousand-fold
activity compared to wild-type nisin or Hpg-labeled nisin(M21V) [2]: reduced activity
activity compared to wild-type nisin or Hpg-labeled nisin(M21V) [3]: reduced activity
potassium ion release (PBFI fluorescence) [4]: did not demonstrate this effect
effect of externally added purified lipid II on antimicrobial activity / lipid II binding [5]: maintained its capacity to bind to lipid II
antibacterial activity in words [6]: retained high potency
solubility thermodynamic at 30 min ([7]; aqueous buffer, thermodynamic from solid, thermodynamic, solid added until precipitation, 50 mM PBS pH 7.2, room temperature, shaking 30 min, centrifugation 3 min 15,000g, HPLC at 226 nm against nisin standard curve, repeated 3 times): 8600 µg/mL (≈ 2450 µM)
solubility, times higher compared to wild-type nisin ([7]; neutral pH, 50 mM PBS pH 7.2, room temperature): 3.9 times
membrane depolarization (DiSC3(5) fluorescence) [8]: lost the ability to induce membrane depolarization
MIC [9]: 15.19 µg/mL (≈ 4.33 µM)
MIC [10]: 3.8 µg/mL (≈ 1.08 µM)
activity compared to wild-type nisin or Hpg-labeled nisin(M21V) [11]: significantly lower activity

M17Q: literature nisin mutant with M17Q mutation (ITSISLCTPGCKTGALQGCNMKTATCHCSIHVSK; cysteine pairing not given here; also: lantibiotic nisin-A; UniProt P13068 24-57, looked up, variant M17Q)
influence of M17 mutation on antimicrobial activity [12]: enhanced effectiveness
